Assay results from patent US20250002470A1, “NITROGEN-CONTAINING COMPOUND, PREPARATION METHOD THEREFOR AND APPLICATION THEREOF” (ZHEJIANG AIXPLORER BIOTECH CO., LTD., priority 2021, published 2025).

What was measured:
NLRP3 = target: T1, NLRP3 (Homo sapiens, UniProt Q96P20); assay: IL-1β (interleukin-1β) secretion in IFN-γ-differentiated, LPS/ATP-stimulated THP-1 cells (half inhibition rate of NLRP3); assay type: cell-based; conditions: IFN-γ 25 ng/mL, LPS 50 ng/mL, ATP 5 mM
T1 construct: endogenous in cells; host or cells: THP-1 cells (IFN-γ differentiated, LPS primed, ATP stimulated)
Method in brief: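 IFN-γ-differentiated THP-1 cells primed with LPS (final 50 ng/mL, 4 h, serum-free), then given compound for 1 h and ATP (final 5 mM) for 1 h at 37 °C. Secreted IL-1β in supernatant quantified by sandwich ELISA (mAb Mt175 capture, biotinylated mAb7P10 detection, streptavidin-HRP/TMB, 450 nm).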

IL-1β = IL-1β cytokine in LPS-induced sepsis mouse model; assay type: in vivo, C57BL/6J mice; conditions: for IL-1β: given 30 minutes before LPS (10 mg/kg i.p.), serum 2 hours after LPS
Protocol: The purpose of this study was to investigate and evaluate the inhibitory effect of the test compound on […] and IL-18 cytokine production in a mouse model of lipopolysaccharide (LPS)-induced sepsis.
6-8 weeks female C57BL/6J mice, randomized, 5 animals in the Naïve group, and the rest of the groups (vehicle group, 15 mg/kg group with embodiment 33 compound, 50 mg/kg group with embodiment 33 compound and 150 mg/kg group with embodiment 33 compound, wherein 15 mg/kg, 50 mg/kg and 150 mg/kg is the dosage of embodiment 33, mg/kg is referred to as mpk) 10 animals per group. Among them, the Naïve group was not stimulated with LPS, and the 10 mice in each group were intraperitoneally injected with LPS (10 mg/kg) to induce sepsis model in the mouse. The vehicle (corresponding to the vehicle group) and the test compound (corresponding to the 15mpk group of Example 33, the 50mpk group of Example 33 and the 150mpk group of Example 33 respectively) were administered 30 minutes before LPS stimulation. 2 hours after LPS stimulation, the mice were euthanized, and whole blood was collected from the heart and placed in EP tubes, left to stand at room temperature for 1 hour, and centrifuged at 8000 rpm for 10 minutes to collect serum for measurement of cytokines IL-10 and IL-18.
For the standard pellet in the IL-10 cytokine CBA kit, put the IL-10 standard pellet into a 15 mL centrifuge tube, add 4 mL of Assay Diluent, and let it stand at room temperature for more than 15 minutes; • After the supernatant sample is melted and mixed evenly, the supernatant is diluted 2 times; • Preparation of standard reagent: Add the diluent Assay Diluent in advance to the 96-well V-shaped bottom plate, 100 μL/well. Add 200 μL of the standard that has been left to stand for 15 minutes into the well plate, and add 100 μL each time to the diluent in sequence. Gradually dilute the standard to 11 gradients (double dilution each time). The 12th hole is used as Blank, 200 μL/well; • Preparation of Capture beads reagent: Take the capture beads in the IL-10 cytokine CBA kit and vortex for 30 seconds. Prepare the Beads as follows: 60 μL IL-10 beads+2440 μL capture beads diluent (60 wells); mix evenly, 50 μL/well, add it to a […] V-bottom plate; shake at 200 g for 5 minutes, and incubate at room temperature for 1 hour; • Preparation of Detection reagent: Take the PE Detection from the IL-10 cytokine CBA kit and vortex for 30 seconds. Prepare the PE as follows: 60 μL IL-10 Detection+2440 μL PE detection diluent; mix evenly. […]

T1 sequence (Q96P20 whole entry): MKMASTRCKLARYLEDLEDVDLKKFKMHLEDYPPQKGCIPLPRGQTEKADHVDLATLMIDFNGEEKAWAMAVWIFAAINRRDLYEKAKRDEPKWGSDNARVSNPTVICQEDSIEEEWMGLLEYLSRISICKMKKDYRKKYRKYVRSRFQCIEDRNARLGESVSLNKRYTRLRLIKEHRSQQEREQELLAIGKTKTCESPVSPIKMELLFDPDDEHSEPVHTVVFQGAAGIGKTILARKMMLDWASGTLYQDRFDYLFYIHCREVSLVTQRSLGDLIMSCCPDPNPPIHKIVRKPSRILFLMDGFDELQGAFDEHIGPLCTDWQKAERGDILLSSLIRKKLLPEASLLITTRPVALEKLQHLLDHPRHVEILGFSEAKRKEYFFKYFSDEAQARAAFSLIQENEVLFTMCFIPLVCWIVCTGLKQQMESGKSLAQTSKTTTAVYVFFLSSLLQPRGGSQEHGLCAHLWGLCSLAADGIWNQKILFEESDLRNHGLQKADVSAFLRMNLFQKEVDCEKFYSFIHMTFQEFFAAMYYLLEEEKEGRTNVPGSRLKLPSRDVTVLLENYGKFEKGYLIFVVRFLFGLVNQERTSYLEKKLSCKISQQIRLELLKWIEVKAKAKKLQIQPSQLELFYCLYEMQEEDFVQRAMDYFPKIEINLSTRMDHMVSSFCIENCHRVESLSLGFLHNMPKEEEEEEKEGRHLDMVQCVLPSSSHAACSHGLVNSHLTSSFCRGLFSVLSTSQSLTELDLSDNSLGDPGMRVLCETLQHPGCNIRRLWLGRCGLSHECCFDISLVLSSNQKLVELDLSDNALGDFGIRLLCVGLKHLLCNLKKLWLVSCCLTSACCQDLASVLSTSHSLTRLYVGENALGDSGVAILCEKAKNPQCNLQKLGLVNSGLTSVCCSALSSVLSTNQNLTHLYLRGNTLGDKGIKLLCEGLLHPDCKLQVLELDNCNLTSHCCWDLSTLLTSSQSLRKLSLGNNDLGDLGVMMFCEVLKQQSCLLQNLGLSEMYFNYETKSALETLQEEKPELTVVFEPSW

Cc1nc(N[C@@H]2CCCC[C@H]2O)nnc1-c1ccc(C(F)(F)F)cc1O [Embodiment 33]
IC50 (NLRP3): 5.8 nM | IL-1β (IL-1β; 15 mpk): 310.1 ± 32.88 | IL-1β (IL-1β; 50 mpk): 213.4 ± 25.66 | IL-1β (IL-1β; 150 mpk): 19.36 ± 5.166 | inhibitory effect on IL-1β compared with the Vehicle group (IL-1β; three dose groups (15, 50, 150 mg/kg)): significant inhibitory effect
